Measurements published in patent publication US20110092445A1, “Amyloid ß peptide analogues, oligomers thereof, processes for preparing and composi-tions comprising said analogues or oligomers, and their uses” (Abbott Laboratories, priority 2008, published 2011).
Bridges are numbered along the chain shown (N, C = ends). Where no end group is shown, it is not given here. The star is where a group is joined. Acm = CC(=O)NC*

Legend:
[1] = system: globulomer-specific antibodies (mAb 5F7, mAb 7C6, rabbit polyclonal antiserum 5599); test: Direct ELISA, response to globulomer-specific antibodies; assay type: binding; details: for reactivity of cross-linked oligomers to the globulomer-specific antibodies: after intra-molecular cross-linking, FIGS. 14-16, 18; for change in affinity to the globulomer-specific antibodies upon truncation with thermolysin: after thermolysin truncation versus untruncated oligomer; for display of the globulomer epitope: oligomers before thermolysin truncation, 5F7, 7C6, antiserum 5599
Excerpt: Materials: Microtiterplates were Nunc Immuno Plate, Maxi-Sorb Surface, flat bottom, (Catalogue #439454). The conjugate (secondary antibody) was Donkey anti-mouse HRPO conjugate, Jackson Immuno Research, (Catalogue #715-035-150). The HRPO Substrate was 3,3′,5′5′-Tetramethylbenzidine Liquid substrate (TMB), Sigma, (Catalogue #T4444). Non-fat Dry Milk (NFDM), was from BioRad, (Catalogue #170-6404). All other chemicals were from conventional sources.
Buffers and solutions: PBST buffer: Sigma PBS made with 0.05% Tween 20. PBST with 0.5% BSA was made by dissolving […] BSA in 100 mL PBST. Blocking solution was 3% NFDM in PBST. Conjugate diluent was 1% NFDM in PBST. The coating buffer was 100 mM NaHCO3 pH8.2. The HRPO Stop Solution was 2 M H2SO4.
Coating the plates: The Aβ globulomer to be tested was diluted to 1.0 μg/mL in coating buffer. 100 μL were added to each well to be coated. Plate was sealed with sealing film and left at 4° C. overnight.
Plate Blocking: The coating solution was removed from the wells. Each well was optionally washed 2-3× with 150 μL of PBST. 300 μL of blocking solution were added (3% NFDM in PBST). Plate was covered with plate sealing film and incubated for ˜2 hrs at room temperature, with agitation.
Primary Antibody: The blocking solution was removed from the wells. Each well was optionally washed 2-3× with 150 μL of PBST. 100 μL of primary antibody solutions were added. For the full length N-Met Aβ(1-42) globulomer, solutions of 0.04 to 100 μg/mL of antibody 5F7 were used. The antibody was diluted using PBST with 0.5% BSA. The plate was covered with plate sealing film and incubated for ˜2 to 3 hrs at room temperature with agitation.
Secondary Antibody (HRPO Conjugate): The primary antibody solution was removed from the wells. Each well was washed 2-3× with 150 μL of PBST. 200 μL of secondary antibody (HRPO conjugate) solution diluted 1:5000 in PBST with 1% NFDM were added. The plate was covered with plate sealing film and incubated for ˜1 hr at room temperature with agitation.
Substrate Development: The conjugate solution was removed from the wells. Each well was washed 2-3× with 200 μL of PBST. 100 μL of HRPO substrate solution were added to each well. Color was allowed to develop under observation. It turned blue. The reaction was usually done in 5-10 minutes at room temperature. 50 μL of stop solution were added to each well. The blue color turned yellow. Absorbance at 450 nm was read using a microtiterplate reader within 30 min of addition of the stop solution.

Substance	change in affinity to the globulomer-specific antibodies upon truncation with thermolysin [1]	display of the globulomer epitope [1]	other results
MBS-linked (17K, 34C) N-Met Aβ(1-42) oligomer [example 4w2]	expected increase in affinity	–	reactivity of cross-linked oligomers to the globulomer-specific antibodies [1]: still display the appropriate reactivity
SMCC-linked (17K, 34C) N-Met Aβ(1-42) oligomer [example 4w1]	expected increase in affinity	–	reactivity of cross-linked oligomers to the globulomer-specific antibodies [1]: still display the appropriate reactivity
Thermolysin truncation of disulfide stabilized (17C, 34C) Aβ(12-42) oligomer [example 5k]	expected increase in affinity	–	–
Disulfide-stabilized (17C, 34C) Aβ(12-42) oligomer (VHHQKCVFFAEDVGSNKGAIIGCMVGGVVIA; disulfide 6-23; also: oligomer; UniProt P05067 683-713, looked up, variant L17C L34C) [example 4k]	–	displayed the globulomer epitope	–
(17K, 34E) N-Met Aβ(1-42) oligomer [example 3x]	–	display the globulomer epitope	–
Thermolysin truncation of disulfide stabilized (17C, 34C) Aβ(16-42) oligomer [example 5s]	expected increase in affinity	–	–
EDC/NHS-linked (17K, 34E) N-Met Aβ(1-42) oligomer [example 4x]	expected increase in affinity	–	reactivity of cross-linked oligomers to the globulomer-specific antibodies [1]: still display the appropriate reactivity
(17C(ACM), 34C(ACM)) Aβ(16-35) oligomer (KC(Acm)VFFAEDVGSNKGAIIGC(Acm)M; also: oligomer; UniProt P05067 687-706, looked up, variant L17C L34C) [3l]	–	not able to form oligomers that displayed the globulomer epitope	–
Aβ(16-35)-amide oligomer (KLVFFAEDVGSNKGAIIGLM-NH2; also: oligomer; UniProt P05067 687-706, looked up, fragment) [example 3m]	–	not able to form oligomers that displayed the globulomer epitope	–
SIAB-linked (17K, 34C) N-Met Aβ(1-42) oligomer [example 4w3]	expected increase in affinity	–	reactivity of cross-linked oligomers to the globulomer-specific antibodies [1]: still display the appropriate reactivity
[(17C, 34C) Aβ(16-35)-amide, cyclic] oligomer (KCVFFAEDVGSNKGAIIGCM-NH2; disulfide 2-19; also: oligomer; UniProt P05067 687-706, looked up, variant L17C L34C) [example 4o]	–	displayed the globulomer epitope	–
Thermolysin truncation of disulfide stabilized (17C, 34C) N-Met Aβ(1-42) oligomer [example 5y]	–	–	homogeneity of oligomers in sedimentation velocity experiments (FIG. 5A-5C): formed homogeneous oligomers; hydrodynamic properties relative to wild-type N-Met Aβ(1-42) (truncated) globulomer (FIG. 5A-5C): displayed better hydrodynamic properties; hydrodynamic homogeneity after truncation at residue 20 by thermolysin (presence (FIG. 5B) and absence (FIG. 5C) of 0.05% SDS): remains significantly more hydrodynamically homogeneous
Disulfide-stabilized (17C, 34C) Aβ(16-42) oligomer (KCVFFAEDVGSNKGAIIGCMVGGVVIA-OH; disulfide 2-19; also: oligomer; UniProt P05067 687-713, looked up, variant L17C L34C) [example 4s]	–	displayed the globulomer epitope	–
Thermolysin truncation of [(17C, 34C) Aβ(16-35)-amide, cyclic] oligomer [example 5o]	expected increase in affinity	–	–
(17K, 34C) N-Met Aβ(1-42) oligomer [example 3w]	–	display the globulomer epitope	–
